In patent US20190255199A1, “NON-INVASIVE DIAGNOSTIC IMAGING AGENT FOR HEART DISEASE” (Nihon Medi-Physics Co., Ltd., priority 2016, published 2019):

What was measured:
[1] = tested on: ischemic heart disease model rat; assay: Ex vivo autoradiography using ischemic heart disease model rat (Example 2); assay type: in vivo
Method: (§1) The chest of each Wistar rat (male) was opened under isoflurane anesthesia, and the left coronary artery was ligated for 30 minutes, followed by reperfusion. The chest was closed to prepare an ischemic heart disease model rat. Approximately 1 week after the operation, the rat was sacrificed under anesthesia, and the heart was taken out thereof. Sections of 5 μm in thickness were prepared from the base side of the heart. Immunostaining was carried out using the prepared sections to confirm the expression and distribution of CPY11B2. As an anti-CYP11B2 antibody, one prepared according to the method described in Ogishima T et al., Endocrinology, 1992, vol. 130, pp. 2971-7 was used. As a secondary antibody, HRP Labelled Polymer Anti-Rabbit (manufactured by Dako/Agilent Technologies, Inc.) was used. CYP11B2 expression sites were detected by applying DAB+(3,3′-diaminobenzidine tetrahydrochloride) substrate kit (manufactured by Dako/Agilent Technologies, Inc.) to the HRP bound to the secondary antibody.
Each ischemic heart disease model rat was prepared in the same way as in Example 1. Compound [^18F] 1 was administered thereto (approximately 50 MBq/rat) between 1 and 3 weeks after the operation. 20 minutes after the administration, the rat was sacrificed under anesthesia, and the heart was taken out thereof. […]

[2] = tested on: heart tissue section of an ischemic heart disease model rat; assay: In vitro autoradiography using ischemic heart disease model rat (Example 3); assay type: binding; settings: for accumulation in the presence of an excessive amount of non-labeled compound (binding specificity): 5 μmol/L non-labeled compound (Compound 1 or Compound 2) added, FIG. 4(e)-(h) / FIG. 5(c),(d); for ratio of ischemia reperfusion site signal intensity/non-ischemic site signal intensity: ROI on autoradiograms, n=4, FIG. 7; for accumulation in lesion region on in vitro autoradiogram: sections immersed in labeled compound solution 30 minutes at room temperature, FIG. 4 / FIG. 5
Method: as §1
Each ischemic heart disease model rat was prepared in the same way as in Example 1. The rat was sacrificed under isoflurane anesthesia between 1 and 3 weeks after the operation. Then, the heart was harvested, and 5 μm sections were prepared and preserved at −80° C. until they were used. The sections were brought back to room temperature from −80° C., dried for 30 minutes or longer, then immersed in phosphate-buffered saline for 30 minutes, and subsequently immersed in phosphate-buffered saline containing 1 w/v % bovine serum albumin for 30 minutes for hydrophilization. Each phosphate-buffered saline containing 1 w/v % bovine serum albumin and further containing Compound [^18F] 1 (radioactivity concentration: approximately 40 kBq/mL) or Compound [^123I] 2 (radioactivity concentration: approximately 10 kBq/mL) was prepared, and the hydrophilized sections were immersed therein at room temperature for 30 minutes. Then, the sections were washed by immersing for 5 minutes each in phosphate-buffered saline containing 1 w/v % bovine serum albumin, phosphate-buffered saline, and phosphate-buffered saline. The sections thus washed were thoroughly dried and then exposed to light for approximately 3 hours as to Compound [^18F] 1 and for approximately 16 hours as to Compound [^123I] 2 on an imaging plate (BAS-SR2040, manufactured by Fujifilm Corp.). Autoradiograms were obtained using a fluoro image analyzer (FLA-7000, manufactured by GE Healthcare Corp.).
Also, autoradiograms were obtained by immersing the sections in a solution containing Compound [^18F] 1 together with 5 μmol/L of Compound 1, or a solution containing Compound [^123I] 2 together with 5 μmol/L of Compound 2 in the same way as above.
The same experiment as above was conducted using the heart harvested from a normal rat.
ROI was established at an ischemia reperfusion site and a non-ischemic site as to the autoradiography of Compound [^18F] 1 and Compound [^123I] 2, and the ratio of signal intensity was compared between these sites. FIG. 7(a) is one example of an autoradiogram of the section immersed in Compound [^18F] 1. FIG. 7(c) is one example of an autoradiogram of the section immersed in Compound [^123I] 2. In both FIGS. 7(a) and 7(c), ROI of the ischemia reperfusion site is surrounded with the solid line, and ROI of the non-ischemic site is surrounded with the broken line. […] 1 in each rat. […] 2 in each rat. […] 1 and Compound [^123I] 2 at the ischemia reperfusion site compared with the non-ischemic site was observed. Higher accumulation of Compound [^123I] 2 than that of Compound [^18F] 1 was also observed.

[3] = tested on: normal rat; assay: SPECT imaging experiment using normal rat (Example 5); assay type: in vivo; settings: approximately 100 MBq/rat, imaging started 150 minutes after administration, FIG. 9(a)-(c)
Method: Each ischemic heart disease model rat was prepared in the same way as in Example 1. Compound [^123I] 2 was administered thereto (approximately 100 MBq/rat) in one week after the operation. Static imaging for approximately 8 minutes was started at 150 minutes after the administration using a SPECT apparatus for animals (FX3000, manufactured by TriFoil Imaging). Data collection was carried out in an energy window of 143 to 175 keV, and the collected data was reconstituted by OSEM (Ordered Subset Expectation Maximization) to obtain images. Computed tomography imaging was carried out in order to identify the position of the heart. The same experiment as above was conducted using a normal rat.

[4] = tested on: heart tissue section of an ischemic heart disease model rat; assay: Influence of elapsed time after ischemic heart disease model rat preparation on compound accumulation, in vitro autoradiography (Example 4); assay type: binding; settings: normal rat and 1 day, 3 days, 1 week after the operation, FIG. 8(a)
Method: as §1
(§2) Each ischemic heart disease model rat was prepared in the same way as in Example 1. The rat was sacrificed under isoflurane anesthesia 1 day (3 rats), 3 days (4 rats) or 1 week (4 rats) after the operation. […] 2 (radioactivity concentration: approximately 10 kBq/mL) was prepared, and the hydrophilized sections were immersed therein at room temperature for 30 minutes. […]

[5] = tested on: ischemic heart disease model rat; assay: SPECT imaging experiment using ischemic heart disease model rat (Example 5); assay type: in vivo; settings: approximately 100 MBq/rat, one week after operation, static imaging started 150 minutes after administration, FIG. 9(d)-(f)
Method: as §1
Each ischemic heart disease model rat was prepared in the same way as in Example 1. Compound [^123I] 2 was administered thereto (approximately 100 MBq/rat) in one week after the operation. Static imaging for approximately 8 minutes was started at 150 minutes after the administration using a SPECT apparatus for animals (FX3000, manufactured by TriFoil Imaging). […]

[6] = tested on: heart tissue section of a hypertensive heart disease model rat; assay: In vitro autoradiography using hypertensive heart disease model rat (Example 9); assay type: binding
Method: Each DIS/Eis (Dahl-Iwai S) rat (male, Japan SLC, Inc.) was fed with 8% NaCl diet (Oriental Yeast Co., Ltd.) from the age of 5 weeks, raised up to the age of 11 weeks, and then sacrificed under anesthesia, and the heart was taken out thereof. Sections of 5 μm in thickness were prepared. Immunostaining was carried out using the prepared sections to confirm the expression and distribution of CPY11B2. As an anti-CYP11B2 antibody, one prepared according to the method described in Ogishima T et al., Endocrinology, 1992, vol. 130, pp. 2971-7 was used. As a secondary antibody, HRP Labelled Polymer Anti-Rabbit (manufactured by Dako/Agilent Technologies, Inc.) was used. CYP11B2 expression sites were detected by applying DAB+(3,3′-diaminobenzidine tetrahydrochloride) substrate kit (manufactured by Dako/Agilent Technologies, Inc.) to the HRP bound to the secondary antibody. The same experiment as above was conducted using the heart harvested from a DIS/Eis rat raised with a NaCl-free diet (normal rat).
Each hypertensive heart disease model rat was prepared in the same way as in Example 8. The heart was harvested, and 5 μm-thick sections were prepared and preserved at −80° C. until they were used. […] 3 (radioactivity concentration: approximately 10 kBq/mL) was prepared, and the hydrophilized sections were immersed therein at room temperature for 30 minutes. […]

[7] = tested on: heart tissue section of a myocarditis model rat; assay: In vitro autoradiography using myocarditis model rat (Example 7); assay type: binding
[8] = tested on: heart tissue section of an ischemic heart disease model rat; assay: In vitro autoradiography using ischemic heart disease model rat (Example 10); assay type: binding; settings: ischemic heart disease model rat one week after operation, approximately 10 kBq/mL, FIG. 14
Method: as §1
as §2, with “in one” for “1 day (3 rats), 3 days (4 rats) or 1”, “week” for “week (4 rats)”, “3” for “2”

With `Fc1cc2nc(-c3cncc(Cn4ccnc4)c3)n(CC[18F])c2cc1Cl` [Compound [^18F] 1, 6-chloro-5-fluoro-1-(2-[^18F]fluoroethyl)-2-[5-(imidazol-1-ylmethyl)pyridin-3-yl]benzimidazole] the “staining findings at the position corresponding to the accumulation site” value ([1]; HE, Masson trichrome and CYP11B2 immunostaining of adjacent section, FIG. 3) was “inflammatory reaction, fibrosis, and CYP11B2 expression were also confirmed at a position corresponding to the accumulation site”, the “accumulation in the heart on ex vivo autoradiogram” value ([1]; approximately 50 MBq/rat, 1 to 3 weeks after operation, heart taken 20 minutes after administration, FIG. 2) was “local accumulation of Compound [^18F] 1 was confirmed” and the “accumulation in the presence of an excessive amount of non-labeled compound (binding specificity)” value [2] was “inhibited by the addition of an excessive amount of a non-labeled compound, suggesting that the binding is specific”. The “ratio of ischemia reperfusion site signal intensity/non-ischemic site signal intensity” value [2] was “increased accumulation” and the “accumulation in lesion region on in vitro autoradiogram” value [2] was “accumulation of Compound [^18F] 1 in a lesion region was confirmed”.

`FCCn1c(-c2cncc(Cn3ccnc3)c2)nc2ccc([123I])cc21` [Compound [^123I] 2, 1-(2-fluoroethyl)-2-[5-{(imidazol-1-yl)methyl}pyridin-3-yl]-6-[^123I]iodobenzimidazole] was tested, and the “accumulation in the heart on SPECT image” value [3] was “not observed in the heart of the normal rat”, the “ratio of ischemia reperfusion site signal intensity/non-ischemic site signal intensity with elapsed time” value [4] was “increased with elapsed time after the operation” and the “accumulation in the presence of an excessive amount of non-labeled compound (binding specificity)” value [2] was “inhibited by the addition of an excessive amount of a non-labeled compound, suggesting that the binding is specific”. For the same molecule, the “agreement of accumulation with fibrosis region” value (shortened to “agreement of accumulation”) ([2]; Masson trichrome staining of the same section, FIG. 6) was “in good agreement with a fibrosis region”, the “ratio of ischemia reperfusion site signal intensity/non-ischemic site signal intensity” value [2] was “increased accumulation” and the “accumulation in lesion region on in vitro autoradiogram” value [2] was “accumulation of Compound [^123I] 2 in a lesion region was confirmed”. For the same molecule, the “accumulation compared between the two labeled compounds” value ([2]; signal intensity ratio, FIG. 7(b) versus 7(d)) was “Higher accumulation of Compound [^123I] 2 than that of Compound [^18F] 1” and the “accumulation in the heart on SPECT image” value [5] was “confirmed in the heart of the ischemic heart disease model rat”.

For `Cn1c(-c2cncc(Cn3ccnc3)c2)nc2ccc([123I])cc21` [Compound [^123I] 3, 2-[5-{(1H-imidazol-1-yl)methyl}pyridin-3-yl]-6-[^123I]iodo-1-methyl-1H-benz[d]imidazole], the “agreement of accumulation” value ([6]; Masson trichrome staining of adjacent section, FIG. 13) was “in good agreement with a fibrosis region”, the “accumulation in heart tissue section compared with normal rat” value ([6]; approximately 10 kBq/mL, FIG. 13(a),(b)) was “increased accumulation” and the “agreement of accumulation” value ([7]; Masson trichrome staining of adjacent section, FIG. 11) was “in good agreement with a fibrosis region”. For the same molecule, the “accumulation in heart tissue section compared with normal rat” value ([7]; approximately 10 kBq/mL, FIG. 11(a),(b)) was “increased accumulation” and the “accumulation in lesion region compared with normal rat” value [8] was “increased accumulation”.
